# Source: the supplement of paper PMC10307832
# Compound: COC1=CC=C(C=C1)COC2=C(C=C(C=C2)CC3=CN=C(N=C3N)N)OC [GW-2580] + COc1cccc2cc(-c3nc([C@H]4CC[C@H](C(=O)O)CC4)n4ncnc(N)c34)[nH]c12 [OSI-027] (partner 0.5 µM)
# Assay: relative viability (nuclei count vs DMSO), 5 days (fraction); higher = more cells survive
# Conditions: first compound 0.08 µM
# Outline: (§1)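 Nuclei were stained with Hoechst during a one-step fixation (final 0.05% Triton X-100, 1% formaldehyde, 1 ug/ml Hoechst) carried out 5 days after dosing, then counted on 4× images. The cells, lung cancer lines in 1536-well plates, had been dosed by pin tool the day after seeding with one drug alone or a fixed anchor-drug dose plus five library-drug doses (not always all listed) in √10 steps. Relative viability is the nuclei count in treated wells divided by that in vehicle wells, and each value is the median of duplicate plates.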
row,Cell Line,relative viability
1,NCI-H441,0.653
2,NCI-H1563,0.827

# Same assay, conditions: first compound 0.8 µM
row,Cell Line,relative viability
1,NCI-H2342,0.671
2,NCI-H1623,0.475
3,NCI-H727,0.761
4,NCI-H1650,0.747
5,NCI-H1993,0.559
6,SW 1573,0.626
7,NCI-H838,0.428
8,LCLC-103H,0.434
9,NCI-H520,0.316
10,NCI-H2126,0.793
11,EMC-BAC-2,0.384
12,NCI-H2085,0.86
13,HCC-366,1.13
14,NCI-H1666,1.12
15,NCI-H596,0.733
16,LK-2,0.19
17,NCI-H2087,0.675

row,Cell Line,relative viability
1,SK-MES-1,0.723
2,H3255,0.606
3,COR-L23,0.994
4,COR-L 105,0.807
5,LOU-NH91,0.808
6,ChaGo-K-1,0.548
7,NCI-H2170,0.745
8,NCI-H2405,0.668
9,HOP-62,0.801
10,HCC-44,0.523
11,NCI-H522,0.618
12,LU99A,0.263
13,BEN,0.273
14,SW 900,0.693
15,NCI-H441,0.634
16,NCI-H1563,0.803

# Same assay, conditions: first compound 2.53 µM
row,Cell Line,relative viability
1,NCI-H2342,0.519
2,NCI-H1623,0.393
3,NCI-H727,0.629
4,NCI-H1650,0.624
5,NCI-H1993,0.55
6,SW 1573,0.666
7,NCI-H838,0.472
8,LCLC-103H,0.482
9,NCI-H520,0.241
10,NCI-H2126,0.706
11,EMC-BAC-2,0.364
12,NCI-H2085,0.653
13,HCC-366,0.894
14,NCI-H1666,0.911
15,NCI-H596,0.76
16,LK-2,0.208
17,NCI-H2087,0.564

row,Cell Line,relative viability
1,SK-MES-1,0.592
2,H3255,0.622
3,COR-L23,0.655
4,COR-L 105,0.713
5,LOU-NH91,0.678
6,ChaGo-K-1,0.532
7,NCI-H2170,0.735
8,NCI-H2405,0.609
9,HOP-62,0.847
10,HCC-44,0.5
11,NCI-H522,0.845
12,LU99A,0.306
13,BEN,0.267
14,SW 900,0.569
15,NCI-H441,0.586
16,NCI-H1563,0.737

# Same assay, conditions: first compound 8 µM
row,Cell Line,relative viability
1,NCI-H2342,0.62
2,NCI-H1623,0.428
3,NCI-H727,0.575
4,NCI-H1650,0.464
5,NCI-H1993,0.561
6,SW 1573,0.577
7,NCI-H838,0.431
8,LCLC-103H,0.458
9,NCI-H520,0.272
10,NCI-H2126,0.716
11,EMC-BAC-2,0.337
12,NCI-H2085,0.886
13,HCC-366,0.818
14,NCI-H1666,0.77
15,NCI-H596,0.808
16,LK-2,0.189
17,NCI-H2087,0.588

row,Cell Line,relative viability
1,NCI-H1648,0.231
2,SK-MES-1,0.379
3,H3255,0.595
4,COR-L23,0.753
5,COR-L 105,0.676
6,LOU-NH91,0.721
7,ChaGo-K-1,0.575
8,NCI-H2170,0.748
9,NCI-H2405,0.618
10,HOP-62,0.985
11,HCC-44,0.524
12,NCI-H522,0.723
13,LU99A,0.34
14,BEN,0.31
15,SW 900,0.75
16,NCI-H441,0.77
17,NCI-H1563,0.707

# Compound: COC1=CC=C(C=C1)COC2=C(C=C(C=C2)CC3=CN=C(N=C3N)N)OC [GW-2580] + CS(=O)(=O)CCNCc1ccc(-c2ccc3ncnc(Nc4ccc(OCc5cccc(F)c5)c(Cl)c4)c3c2)o1 [Lapatinib] (partner 2 µM)
# Assay: as above
# Conditions: first compound 0.08 µM
# Outline: as §1
row,Cell Line,relative viability
1,NCI-H727,0.792
2,NCI-H1650,0.822
3,EBC-1,0.193
4,NCI-H1703,1.1
5,NCI-H1993,0.775
6,SW 1573,0.979
7,NCI-H838,0.994
8,NCI-H520,0.973
9,NCI-H2126,0.767
10,EMC-BAC-2,0.909
11,NCI-H2085,0.849
12,Calu-6,1.14
13,HCC-366,1.08
14,NCI-H1666,0.601
15,NCI-H596,1.25
16,LK-2,0.972

row,Cell Line,relative viability
1,NCI-H2087,1.43
2,SK-MES-1,0.47
3,H3255,0.216
4,COR-L23,1.26
5,COR-L 105,0.429
6,IA-LM,0.997
7,LOU-NH91,0.748
8,NCI-H2170,0.26
9,NCI-H2405,1.05
10,HOP-62,0.856
11,HCC-44,1.12
12,A549,1.11
13,LU99A,1.07
14,BEN,0.642
15,NCI-H1299,1.04
16,NCI-H1563,0.895

# Same assay, conditions: first compound 0.8 µM
row,Cell Line,relative viability
1,NCI-H727,1.04
2,NCI-H1650,0.895
3,EBC-1,0.219
4,NCI-H1703,1.32
5,NCI-H1993,0.904
6,SW 1573,1.11
7,NCI-H838,1.11
8,NCI-H520,0.926
9,NCI-H2126,0.835
10,EMC-BAC-2,0.95
11,NCI-H2085,0.988
12,Calu-6,1.18
13,HCC-366,1.02
14,NCI-H1666,0.757
15,NCI-H596,1.2
16,LK-2,0.952
17,NCI-H2087,1.18
18,SK-MES-1,0.496
19,H3255,0.265
20,COR-L23,1.22
21,COR-L 105,0.393
